Measured values reported in patent publication US12156862B2, “Medicaments for the treatment of vasoconstriction related diseases or disorders” (Sulfateq B.V., priority 2017, dated 2024).
Marks after values point to notes of the source that are not given here.

Experiments:
[1] = target: T1, human histamine H1 receptor (Homo sapiens, UniProt P35367); assay: Histamine-induced intracellular calcium transients in HeLa cells; format: cell-based
T1 construct: HeLa cells endogenously expressing human histamine H1 receptor; endogenous in cells; host or cells: HeLa
Method: (§1) HeLa cells endogenously expressing histamine and TP receptors were grown in DMEM-F12 medium enriched with 10% FBS and 1% penicillin-streptomycin. Cells were kept in a tissue culture incubator at 37° C. in […] atmosphere and grown in 75 cm^2 non-treated cell culture flasks. Plating was performed 24 hours before measurement on black transparent-bottom 96-well plates at 20,000 cells per well density.
(§2) To confirm specificity of SUL-150 for the α1 adrenoceptor additionally histamine and U46619 induced calcium transients were studied in HeLa cells endogenously expressing human histamine H1 receptor.

α1 adrenoceptor [2] = assay: Methoxamine-induced constriction of isolated porcine intrarenal arteries
Method: (§3) Porcine kidneys were obtained from a local slaughterhouse (Kroon Vlees, Gotenburgweg 30, 9723 TM Groningen. The Netherlands) and transported on ice in normal physiological Krebs buffer containing 120 mM NaCl, 6 mM KCl, 2.5 mM CaCl2×2H2O, 1.2 mM MgCl2×6H2O, 1.2 mM NaH2PO4×H2O, 25 mM NaHCO3 and 11.4 mM D-(+)-Glucose monohydrate (all ingredients were purchased from Merck) in ultrapure water.
(§4) The renal artery tree was dissected from the kidney, cleaned of surrounding connective tissue and cut into equally-sized ring segments (2 mm in length). In some rings, endothelium denudation was performed by gentle rubbing of the intimal surface with a paper clip. Rings were mounted in organ baths as described previously (Buikema et al., 2000). Arterial rings were washed thoroughly by replacing Krebs buffer and allowed to equilibrate for a period of 60 min under 1.4 g of resting tension before they were assessed for viability by inducing 2 subsequent constrictions with KCl (60 mM). […] After washout and stabilization, rings were treated for 30 minutes by incubation with vehicle (0.1% DMSO), SUL-121, SUL-150 or SUL-151, followed by subsequent incubation with cumulative doses of phenylephrine.
Additionally, the effects of SUL-150 were investigated on stimulation with methoxamine, which is an alternative α1 adrenoceptor agonist.

thromboxane receptors = target: T2, thromboxane receptors (Sus scrofa, UniProt A0A287A102); assay: U46619-induced constriction of isolated porcine intrarenal arteries; conditions: for logEC50 of U46619-induced constriction responses: Porcine renalis
T2 construct: from tissue; host or cells: porcine intrarenal artery rings
Method: as §3, §4
(§5) To gain insight into receptor specificity of SUL-150, the effects of SUL-150 on histamine and U46619 (a synthetic thromboxane agonist) induced constrictions were investigated (FIG. 2).

TP receptors = target: T3, TP receptors (Homo sapiens, UniProt P21731); assay: U46619-induced intracellular calcium transients in HeLa cells; format: cell-based
T3 construct: HeLa cells endogenously expressing histamine and TP receptors; endogenous in cells; host or cells: HeLa
T3 sequence (P21731 1-343): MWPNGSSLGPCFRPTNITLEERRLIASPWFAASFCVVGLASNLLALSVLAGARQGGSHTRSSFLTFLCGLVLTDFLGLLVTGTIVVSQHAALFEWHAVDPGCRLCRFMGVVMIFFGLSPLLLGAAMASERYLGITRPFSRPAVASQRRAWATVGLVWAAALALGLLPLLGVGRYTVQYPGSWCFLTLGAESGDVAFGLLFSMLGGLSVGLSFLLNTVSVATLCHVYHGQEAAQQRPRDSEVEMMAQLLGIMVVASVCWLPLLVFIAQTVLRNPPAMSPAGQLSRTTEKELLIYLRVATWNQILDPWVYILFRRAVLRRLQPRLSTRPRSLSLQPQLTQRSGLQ
Method: as §1, §2

α1A adrenoceptor = target: T4, α1A adrenoceptor (Homo sapiens, UniProt P35348); assay: Radiolabeled prazosin displacement binding assay in α1A adrenoceptor transgenic CHO cells; conditions: [7-Methoxy-3H]-prazosin
T4 construct: expressed in transfected cells; host or cells: CHO-K1
T4 sequence (P35348 1-466): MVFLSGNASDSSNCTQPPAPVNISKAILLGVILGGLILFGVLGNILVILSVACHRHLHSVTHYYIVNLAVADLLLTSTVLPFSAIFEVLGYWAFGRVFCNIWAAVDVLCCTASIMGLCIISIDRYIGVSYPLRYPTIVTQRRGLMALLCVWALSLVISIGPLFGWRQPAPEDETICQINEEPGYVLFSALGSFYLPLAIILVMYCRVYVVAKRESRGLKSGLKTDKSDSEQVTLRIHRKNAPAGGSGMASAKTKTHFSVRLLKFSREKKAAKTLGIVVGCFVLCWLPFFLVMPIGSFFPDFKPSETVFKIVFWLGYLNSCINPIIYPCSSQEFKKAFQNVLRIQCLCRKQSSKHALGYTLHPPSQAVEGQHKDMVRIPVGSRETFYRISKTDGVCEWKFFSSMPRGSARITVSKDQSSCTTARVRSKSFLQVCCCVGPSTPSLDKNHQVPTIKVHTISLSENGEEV
From the text: We therefore explored whether SUL-150 could directly interact with the α1 adrenoceptor as a receptor antagonist.

EGFR transactivation = assay: Phenylephrine-induced constriction of porcine intrarenal arteries pre-treated with EGFR blocker AG1478; conditions: AG1478 20 μM and SUL-150 50 μM
Method: Inhibition of EGF receptor (EGFR) transactivation is known to inhibit α1 adrenoceptor mediated constrictions (REF). Therefore, we investigated the role of EGFR transactivation in SUL-150 mediated inhibition of vasoconstriction. For this, porcine intrarenal arteries were pre-treated with the EGFR blocker AG1478 (FIG. 3). First, an initial measurement was performed to determine the dose of AG1478 which would cause maximal inhibition of vascular constriction induced by PE (FIG. 3A). Subsequently, isolated arteries were treated with AG1478 (20 μM) and SUL-150 (50 μM) and studied for PE-induced vasoconstriction.

[3] = test system: porcine intrarenal arteries (histamine induced constrictions); assay: Histamine-induced constriction of isolated porcine intrarenal arteries; conditions: for logEC50 of histamine-induced constriction responses: Porcine renalis
Method: as §3, §4, §5

[4] = target: T5, human α1 adrenoceptor subtype D (Homo sapiens, UniProt P25100); assay: Phenylephrine-induced intracellular calcium (FLIPR Calcium 6) in CHO cells, α1D; format: cell-based
T5 construct: expressed in transfected cells; host or cells: CHO-K1
T5 sequence (P25100 1-572): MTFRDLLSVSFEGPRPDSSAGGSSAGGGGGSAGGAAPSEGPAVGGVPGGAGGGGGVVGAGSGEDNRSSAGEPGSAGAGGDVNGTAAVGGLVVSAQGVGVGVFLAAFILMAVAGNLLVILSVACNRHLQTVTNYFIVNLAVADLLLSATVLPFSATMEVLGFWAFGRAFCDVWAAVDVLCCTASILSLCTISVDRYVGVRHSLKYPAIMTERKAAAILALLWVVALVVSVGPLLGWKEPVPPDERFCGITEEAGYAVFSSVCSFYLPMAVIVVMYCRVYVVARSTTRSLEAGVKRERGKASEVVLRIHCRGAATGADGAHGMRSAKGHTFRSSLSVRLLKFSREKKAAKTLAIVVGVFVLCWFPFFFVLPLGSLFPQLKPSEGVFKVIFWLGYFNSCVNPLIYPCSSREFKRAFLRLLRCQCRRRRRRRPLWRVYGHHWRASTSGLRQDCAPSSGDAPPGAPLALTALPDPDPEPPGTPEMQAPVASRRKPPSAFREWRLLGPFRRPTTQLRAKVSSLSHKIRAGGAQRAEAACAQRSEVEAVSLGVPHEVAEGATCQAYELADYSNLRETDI
Method: (§6) CHO-K1 cells were stably transfected with a plasmid containing human al-AR subtypes A, B and D in separate cell lines in DMEM-F12 medium with 10% FBS, 1% penicillin-streptomycin and 200 μg/mL Geneticin (G418, Invitrogen, Carlsbad, CA).
(§7) On the next day, CHO cells were treated with either vehicle (0.1% DMSO) or SUL-121 enantiomers for 30 min at 37° C. and stimulated with a 3-fold dilution series of PE (20 μM-100 pM). [Ca^2], was measured using the fluorescent FLIPR Calcium 6 assay kit (Molecular Devices) in immortalized CHO cells stably expressing the α1 adrenoceptor.
(§8) Initially, calcium responses induced by non-cumulative concentration series of phenylephrine were investigated using fluorescent measurements in α1A adrenoceptor-overexpressing CHO cells treated with SUL-150 and SUL-151 (FIG. 4). Fluorescent measurement data was processed and analyzed in SoftMax Pro 7 and expressed as % of baseline AUC with a 3-fold multiplier using an average of first 10 measurement points as baseline.

[5] = target: T6, human α1 adrenoceptor subtype B (Homo sapiens, UniProt P35368); assay: Phenylephrine-induced intracellular calcium (FLIPR Calcium 6) in CHO cells, α1B; format: cell-based
T6 construct: expressed in transfected cells; host or cells: CHO-K1
T6 sequence (P35368 1-520): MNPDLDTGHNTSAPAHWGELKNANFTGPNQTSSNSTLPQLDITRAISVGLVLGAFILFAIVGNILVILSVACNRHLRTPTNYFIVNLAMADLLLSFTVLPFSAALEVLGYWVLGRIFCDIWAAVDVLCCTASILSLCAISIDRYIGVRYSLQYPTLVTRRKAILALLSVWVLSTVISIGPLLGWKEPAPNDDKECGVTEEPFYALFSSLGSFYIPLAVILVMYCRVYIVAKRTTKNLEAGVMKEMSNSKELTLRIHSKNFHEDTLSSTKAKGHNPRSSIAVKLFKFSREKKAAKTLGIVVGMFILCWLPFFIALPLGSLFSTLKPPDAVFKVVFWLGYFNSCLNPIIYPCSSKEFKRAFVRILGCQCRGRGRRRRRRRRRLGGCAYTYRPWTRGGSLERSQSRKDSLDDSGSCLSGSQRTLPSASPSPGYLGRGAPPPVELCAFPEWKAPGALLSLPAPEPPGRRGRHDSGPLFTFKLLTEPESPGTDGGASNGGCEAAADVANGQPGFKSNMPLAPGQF
Method: as §6, §7, §8

[6] = target: T7, human α1 adrenoceptor subtype A (Homo sapiens, UniProt P35348); assay: Phenylephrine-induced intracellular calcium (FLIPR Calcium 6) in CHO cells, α1A; format: cell-based
T7 construct: expressed in transfected cells; host or cells: CHO-K1
T7 sequence (P35348 1-466): T4 sequence (P35348 1-466)
Method: as §6, §7, §8

α1 adrenoceptor [7] = assay: Phenylephrine-induced constriction of isolated porcine intrarenal arteries (myography)
Method: as §3, §4
Dose-dependent constriction responses to phenylephrine (10^−8M-10^−4M) were recorded in said isolated porcine intrarenal arteries. Buffer was warmed to 37° C. and aerated with 95% O2 and 5% CO2 before use.
Vascular constriction responses are expressed as percentage of final response to KCl. Data are expressed as mean±SEM. *p<0.05.
To explore the effects of the enantiomers of (6-hydroxy-2,5,7,8-tetramethylchroman-2-yl)(piperazin-1-yl)methanone (SUL-150 and SUL-151) on constriction of isolated porcine intrarenal arteries, cumulative dose response curves to the α1 adrenoceptor agonist phenylephrine (PE) were constructed in the presence and absence of SUL-150 and SUL-151.

[8] = 10 μM SUL-150, calcium transients
[9] = 30 μM SUL-150, calcium transients
[10] = 100 μM SUL-150, calcium transients

T2 sequence (A0A287A102 1-343): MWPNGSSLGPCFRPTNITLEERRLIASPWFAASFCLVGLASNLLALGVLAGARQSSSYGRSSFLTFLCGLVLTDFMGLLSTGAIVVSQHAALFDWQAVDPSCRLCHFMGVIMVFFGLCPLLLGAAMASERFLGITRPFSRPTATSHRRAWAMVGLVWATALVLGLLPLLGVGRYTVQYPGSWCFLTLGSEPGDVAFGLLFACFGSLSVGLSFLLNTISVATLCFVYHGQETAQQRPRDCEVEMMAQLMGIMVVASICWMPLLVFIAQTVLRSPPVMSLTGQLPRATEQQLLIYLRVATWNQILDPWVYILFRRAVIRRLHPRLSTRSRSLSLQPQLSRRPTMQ
T1 sequence (P35367 whole entry): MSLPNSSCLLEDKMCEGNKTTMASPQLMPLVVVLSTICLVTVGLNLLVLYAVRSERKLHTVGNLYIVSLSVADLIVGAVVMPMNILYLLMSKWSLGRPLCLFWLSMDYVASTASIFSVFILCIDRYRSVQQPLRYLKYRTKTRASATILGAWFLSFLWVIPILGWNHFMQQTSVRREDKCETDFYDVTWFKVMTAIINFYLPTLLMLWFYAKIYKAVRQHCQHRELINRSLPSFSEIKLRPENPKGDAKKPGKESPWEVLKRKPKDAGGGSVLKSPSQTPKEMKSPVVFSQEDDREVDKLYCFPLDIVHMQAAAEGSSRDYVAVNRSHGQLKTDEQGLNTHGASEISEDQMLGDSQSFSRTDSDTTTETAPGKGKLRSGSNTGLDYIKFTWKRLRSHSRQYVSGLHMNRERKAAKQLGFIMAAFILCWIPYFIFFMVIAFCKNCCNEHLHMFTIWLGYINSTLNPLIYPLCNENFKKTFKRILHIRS

logEC50 of histamine-induced response, HeLa cells [1, 8]: −6.45 ± 0.05
logEC50 of histamine-induced response, HeLa cells [1, 9]: −6.39 ± 0.05
logEC50 of histamine-induced response, HeLa cells [1, 10]: −6.29 ± 0.06
effect on histamine induced calcium transients ([1]; in words): did not significantly affect
logEC50 of U46619-induced constriction responses (thromboxane receptors; 30 μM SUL-150): −7.58 ± 0.06
logEC50 of U46619-induced constriction responses (thromboxane receptors; 100 μM SUL-150): −7.50 ± 0.04
shift in EC50 of U46619-induced constrictions (thromboxane receptors; 100 μM SUL-150, in words): small effect size
logEC50 of U46619-induced response, HeLa cells (TP receptors; [8]): −6.83 ± 0.10
logEC50 of U46619-induced response, HeLa cells (TP receptors; [9]): −6.78 ± 0.18
logEC50 of U46619-induced response, HeLa cells (TP receptors; [10]): −6.75 ± 0.10
effect on U46619 induced calcium transients (TP receptors; in words): did not significantly affect
potency in displacing the radioligand compared to SUL-151 (α1A adrenoceptor): more potent
logEC50 of phenylephrine-induced calcium influx, α1D ([4]; 10 μM test compound): −7.37 ± 0.10
logEC50 of phenylephrine-induced calcium influx, α1D ([4]; 30 μM test compound): −7.04 ± 0.06
logEC50 of phenylephrine-induced calcium influx, α1D ([4]; 100 μM test compound): −6.80 ± 0.10
effect on PE-induced calcium transients, α1 adrenoceptor subtype D ([4]; in words): shifted dose response curves rightwards
logEC50 of phenylephrine-induced calcium influx, α1B ([5]; 10 μM test compound): −7.51 ± 0.08
logEC50 of phenylephrine-induced calcium influx, α1B ([5]; 30 μM test compound): −7.24 ± 0.07
logEC50 of phenylephrine-induced calcium influx, α1B ([5]; 100 μM test compound): −6.72 ± 0.08
effect on PE-induced calcium transients, α1 adrenoceptor subtype B ([5]; in words): shifted dose response curves rightwards
logEC50 of phenylephrine-induced calcium influx, α1A ([6]; 10 μM test compound): −7.62 ± 0.03
logEC50 of phenylephrine-induced calcium influx, α1A ([6]; 30 μM test compound): −7.28 ± 0.03
logEC50 of phenylephrine-induced calcium influx, α1A ([6]; 100 μM test compound): −6.88 ± 0.03
effect on PE-induced calcium transients, α1 adrenoceptor subtype A ([6]; in words): shifted dose response curves rightwards
Compound: Cc1c(C)c2c(c(C)c1O)CC[C@](C)(C(=O)N1CCNCC1)O2 [SUL-150, (R)(6-hydroxy-2,5,7,8-tetramethylchroman-2-yl)(piperazin-1-yl)methanone]
effect on dose response curves to methoxamine (α1 adrenoceptor [2]; SUL-150 pre-treatment (30 μM and 100 μM), intact endothelium): shifted rightward
effect on methoxamine induced constriction after removal of the endothelium (α1 adrenoceptor [2]; endothelium-denuded rings): did not abrogate the effects of SUL-150
effect on PE-mediated constriction on top of AG1478 (EGFR transactivation): additional inhibitory effect
logEC50 of histamine-induced constriction responses ([3]; 30 μM SUL-150): −4.86 ± 0.08
effect on constriction responses to histamine ([3]; 30 μM and 100 μM, in words): did not affect
logEC50 of histamine-induced constriction responses ([3]; 100 μM SUL-150): −4.85 ± 0.10
logEC50 of phenylephrine-induced constriction responses (α1 adrenoceptor [7]; 10 μM test compound): −5.11 ± 0.09*
logEC50 of phenylephrine-induced constriction responses (α1 adrenoceptor [7]; 30 μM test compound): −5.06 ± 0.06*
logEC50 of phenylephrine-induced constriction responses (α1 adrenoceptor [7]; 100 μM test compound): −4.44 ± 0.09*
